Values of other authors, collected in patent US20020006908A1, “ANTICONVULSANT DERIVATIVES USEFUL IN TREATING SCHIZOPHRENIA” (priority 1998, published 2002).

Assays:
[1] = test system: animal model of kindled epilepsy
human epilepsy = settings: adjunctive therapy or monotherapy, clinical trials of human epilepsy
[2] = test system: rodent models of epilepsy; settings: several rodent models of epilepsy

What does the source list for `CC1(C)O[C@@H]2[C@@H](CO[C@@]3(COS(N)(=O)=O)OC(C)(C)O[C@@H]23)O1` [topiramate, 2,3:4,5-bis-O-(1-methylethylidene)-β-D-fructopyranose sulfamate]?
seizure block [1]: effectively block seizures; efficacy in treating simple and complex partial seizures and secondarily generalized seizures (human epilepsy): effective; seizure block [2]: effectively block seizures; effect on brain GABA activity (brain GABA activity): enhancement of brain GABA activity; effect on glutamate receptor activity (glutamate receptor): reduced glutamate receptor activity
